# Where a name gives a salt, the structure may show the parent alone. Marks after values point to notes of the source that are not given here.
# Tested on: scopolamine-induced impairment of passive avoidance response
# Assay: passive avoidance test, scopolamine-induced impairment
# Format: in vivo, Male Sprague Dawley rats
# Procedure: Male Sprague Dawley rats weighing 175-200 g were used. The animals were kept in a regulated environment (20 ± 1°C, 50-55% humidity and 12 hours light-dark cycle, light on at 7.00 a.m.) and maintained with standard pellet diet. The apparatus used for the passive avoidance test was composed of a dark compartment (30x30x30 cm) with a grid floor and a compartment (30x30x30 cm) illuminated from above by a 20 W daylight lamp, the 2 compartments being separated by a guillotine-type door (10x8 cm). Scrambled electric shocks were delivered to the grid floor by an isolated stimulator.
# Rats were divided in groups of 10 animals. • a) Training: each rat was placed gently in the lighted compartment and 10 sec later the door was opened. As soon as the rat had moved into the dark compartment and the door had been shut, a 1.6 mA foot-shock was applied for 1 sec. The rat was immediately removed from the apparatus and returned to the home cage. • b) Retention: the retention test was carried out 24 hours later by an observer unaware of the given treatment. Each rat was placed into the lighted compartment again and the step-through latency was recorded. The test is stopped when the rat enters the dark compartment or when it fails to do so in […] 180 sec.
# [1] = step-through latency in retention test 24 hours after training, test compound 0.03 mg/kg i.p. 15 min before scopolamine 0.75 mg/kg i.p., which was given 30 min before training, mean ± S.E.M, 10 animals, cut-off 180 sec
compound,measurement,setting,value
"CN1[C@@H]2CC[C@H]1C[C@@H](NC(=O)n1c(=O)[nH]c3ccccc31)C2 [Compound 1, N-(endo-8-methyl-8-azabicyclo[3.2.1]oct-3-yl)-2,3-dihydro-2-oxo-1H-benzimidazole-1-carboxamide]",LATENCY,"step-through latency in retention test 24 hours after training, test compound 0.01 mg/kg i.p. 15 min before scopolamine 0.75 mg/kg i.p., which was given 30 min before training, mean ± S.E.M, 10 animals, cut-off 180 sec",136 ± 16.0 s
same,LATENCY,[1],109 ± 17.0 s
"CCn1c(=O)n(C(=O)N[C@H]2C[C@H]3CC[C@@H](C2)N3C)c2ccccc21 [Compound 5, N-(endo-8-methyl-8-azabicyclo[3.2.1]oct.-3-yl)-2,3-dihydro-3-ethyl-2-oxo-1H-benzimidazole-1-carboxamide]",LATENCY,[1],113 ± 17.0 s
"CC(C)n1c(=O)n(C(=O)N[C@H]2C[C@H]3CC[C@@H](C2)N3C)c2ccccc21 [Compound 6, N-(endo-8-methyl-8-azabicyclo[3.2.1]oct.-3-yl)-2,3-dihydro-3-(1-methyl)ethyl-2-oxo-1H-benzimidazole-1-carboxamide, hydrochloric acid salt]",LATENCY (SEC),[1],140 + 16 ** SEC
"CN1[C@@H]2C[C@@H](OC(=O)[C@H](CO)c3ccccc3)C[C@H]1[C@@H]1O[C@@H]12 [Scopolamine, scopolamine, reference compound]",LATENCY,"rat, in vivo, ip, 0.75 mg/kg",66 ± 18.7 s

# — patent EP0523013B1, “Use of benzimidazoline-2-oxo-1-carboxylic acid derivatives in the treatment of organic mental diseases” (BOEHRINGER INGELHEIM ITALIA S.p.A., priority 1991, dated 1993)
